# Assay results as given in article PMC12169608, “Peptidomimetic Phenoxymethyl Ketone Warheads as Potent Dual-Mode Inhibitors against SARS-CoV‑2 M^pro and Cathepsin” (Journal of Medicinal Chemistry, 2025).
# Like-named read-outs stand apart in the source and are kept apart here.
# Tests used:
# SARS-CoV-2 M^pro = SARS-CoV-2 M^pro (Severe acute respiratory syndrome coronavirus 2, UniProt P0DTD1); test: biochemical; format: biochemical
# [1] = target: T1, human cathepsin L (hCTSL) (Homo sapiens, UniProt P07711); test: hCTSL biochemical assay
# T1 construct: purchased R&D Systems
# [2] = target: human cathepsin B (hCTSB) (Homo sapiens, UniProt P07858); test: hCTSB biochemical assay
# [3] = target: mouse cathepsin L (mCTSL) (Mus musculus, UniProt P06797); test: mCTSL biochemical assay
# hamster CTSL = hamster CTSL (Mesocricetus auratus, UniProt Q812A7); test: hamster CTSL biochemical assay
# [4] = system: luciferase-expressing VSV (ΔG) pseudotyped with Spike from SARS-CoV-2; test: microbe, parasite or virus in culture; format: cell-based
# SARS-CoV-2 = test: microbe, parasite or virus in culture; format: cell-based; settings: Severe acute respiratory syndrome coronavirus 2, Vero C1008, read-out: SARS-CoV-2 CPE reduction assay pEC50 (converted)
# Calpain-1 = target: T2, Calpain-1 (Homo sapiens, UniProt P07384); test: Protease panel: Calpain-1; format: biochemical
# T2 construct: erythrocytes; tissue Eurofins Discovery (assay service); host or cells: human erythrocytes
# T2 sequence (P07384 1-714): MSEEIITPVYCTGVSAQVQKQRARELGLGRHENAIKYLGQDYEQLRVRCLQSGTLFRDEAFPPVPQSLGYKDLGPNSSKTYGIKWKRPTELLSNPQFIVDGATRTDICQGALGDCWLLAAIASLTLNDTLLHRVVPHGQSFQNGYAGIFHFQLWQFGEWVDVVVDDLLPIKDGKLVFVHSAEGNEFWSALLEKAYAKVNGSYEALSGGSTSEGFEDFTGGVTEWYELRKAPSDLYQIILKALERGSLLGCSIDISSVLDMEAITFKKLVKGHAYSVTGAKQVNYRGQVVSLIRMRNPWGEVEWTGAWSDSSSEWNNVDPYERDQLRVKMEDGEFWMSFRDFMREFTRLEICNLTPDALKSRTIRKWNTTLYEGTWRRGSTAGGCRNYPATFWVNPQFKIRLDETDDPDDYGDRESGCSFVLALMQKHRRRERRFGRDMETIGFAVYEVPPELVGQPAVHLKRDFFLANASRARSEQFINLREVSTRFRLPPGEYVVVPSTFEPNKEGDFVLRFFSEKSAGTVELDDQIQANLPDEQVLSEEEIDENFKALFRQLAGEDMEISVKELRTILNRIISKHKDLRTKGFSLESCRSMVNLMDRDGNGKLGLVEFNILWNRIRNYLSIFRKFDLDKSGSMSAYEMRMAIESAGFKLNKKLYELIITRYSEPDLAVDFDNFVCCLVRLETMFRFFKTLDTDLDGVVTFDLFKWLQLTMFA
# T2 sequence (P04632 1-268 partner): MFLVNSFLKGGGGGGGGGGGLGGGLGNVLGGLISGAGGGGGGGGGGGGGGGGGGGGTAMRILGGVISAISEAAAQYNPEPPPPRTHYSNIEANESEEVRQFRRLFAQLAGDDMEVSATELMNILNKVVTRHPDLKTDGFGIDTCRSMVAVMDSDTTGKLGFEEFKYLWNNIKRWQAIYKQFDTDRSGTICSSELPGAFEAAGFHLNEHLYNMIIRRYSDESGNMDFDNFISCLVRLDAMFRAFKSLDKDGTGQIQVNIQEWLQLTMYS
# Caspase 2 = target: T3, Caspase 2 (Homo sapiens, UniProt P42575); test: Protease panel: Caspase 2; format: biochemical
# T3 construct: purchased Eurofins Discovery (assay service); host or cells: E. coli
# T3 sequence (P42575 170-325 limits assumed): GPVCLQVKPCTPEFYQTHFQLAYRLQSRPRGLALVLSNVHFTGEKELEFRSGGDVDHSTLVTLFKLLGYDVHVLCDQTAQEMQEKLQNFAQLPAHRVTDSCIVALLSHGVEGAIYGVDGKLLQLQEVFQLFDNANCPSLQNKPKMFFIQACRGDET
# T3 sequence (P42575 348-452 limits assumed): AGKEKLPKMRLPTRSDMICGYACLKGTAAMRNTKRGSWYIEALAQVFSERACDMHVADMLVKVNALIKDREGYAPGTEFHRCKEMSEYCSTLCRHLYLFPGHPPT
# Cathepsin D = target: T4, Cathepsin D (Homo sapiens, UniProt P07339); test: Protease panel: Cathepsin D; format: biochemical
# T4 construct: Human liver; tissue Eurofins Discovery (assay service); host or cells: human liver
# Neutrophil Elastase 2 = target: T5, Neutrophil Elastase 2 (Homo sapiens, UniProt P08246); test: Protease panel: Neutrophil Elastase 2; format: biochemical
# T5 construct: neutrophils; tissue Eurofins Discovery (assay service); host or cells: human neutrophils
# T5 sequence (P08246 30-267): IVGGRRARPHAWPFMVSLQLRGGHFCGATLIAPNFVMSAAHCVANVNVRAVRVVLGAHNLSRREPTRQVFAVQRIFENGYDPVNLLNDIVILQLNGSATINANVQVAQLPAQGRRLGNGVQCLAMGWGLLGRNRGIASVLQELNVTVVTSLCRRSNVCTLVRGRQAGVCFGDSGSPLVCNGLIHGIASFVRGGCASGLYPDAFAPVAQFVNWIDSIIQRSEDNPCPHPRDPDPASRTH
# thrombin = target: T6, thrombin (Homo sapiens, UniProt P00734); test: Protease panel: thrombin; format: biochemical
# T6 construct: preincubated with thrombin (10 nM, Sigma); purchased Sigma-Aldrich
# [5] = 3 h, 2 µM
# in vitro [6] = settings: African green monkey
# physchem [7] = settings: pH 7.4
# physchem [8] = settings: pH 7.4; remark: listed apart in the source
# in vitro [9] = settings: mouse, plasma, mouse plasma protein binding
# in vitro [10] = settings: mouse, hepatocytes, CLint (mouse hepatocytes)
# in vitro [11] = settings: hamster, hepatocytes
# in vitro [12] = settings: mouse, microsomes, pH 7.4
# in vitro [13] = settings: hamster, microsomes, pH 7.4
# trypsin = test: Protease panel: trypsin
# [14] = Mouse hepatocyte stability
# [15] = Hamster hepatocyte stability; settings: cryopreserved hepatocytes, t1/2 (hamster hepatocytes), without ritonavir
# [16] = Mouse liver microsomal stability; settings: microsomes, pH 7.4
# [17] = Hamster liver microsomal stability; settings: microsomes, pH 7.4
# [18] = target: mouse cathepsin B (mCTSB) (Mus musculus, UniProt P10605); test: mCTSB biochemical assay
# [19] = pH 7.4
# Kinetic solubility = settings: PBS buffer pH 7.4
# [20] = Plasma protein binding (ultra-centrifugation)
# T1 sequence (P07711 114-333): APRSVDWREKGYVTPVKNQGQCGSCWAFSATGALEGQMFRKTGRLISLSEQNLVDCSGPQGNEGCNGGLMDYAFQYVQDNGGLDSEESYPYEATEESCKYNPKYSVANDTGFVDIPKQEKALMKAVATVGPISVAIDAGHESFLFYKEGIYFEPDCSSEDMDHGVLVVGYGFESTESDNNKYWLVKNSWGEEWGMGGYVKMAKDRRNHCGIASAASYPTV
# Chain of mouse cathepsin L (mCTSL) (P06797 114-334): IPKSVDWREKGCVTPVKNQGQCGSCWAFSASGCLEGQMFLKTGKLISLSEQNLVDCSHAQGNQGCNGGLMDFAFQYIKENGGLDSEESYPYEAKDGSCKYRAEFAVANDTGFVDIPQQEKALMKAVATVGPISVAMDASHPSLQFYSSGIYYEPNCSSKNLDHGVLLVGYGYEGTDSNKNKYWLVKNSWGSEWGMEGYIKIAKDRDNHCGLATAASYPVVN
# T4 sequence (P07339 65-412): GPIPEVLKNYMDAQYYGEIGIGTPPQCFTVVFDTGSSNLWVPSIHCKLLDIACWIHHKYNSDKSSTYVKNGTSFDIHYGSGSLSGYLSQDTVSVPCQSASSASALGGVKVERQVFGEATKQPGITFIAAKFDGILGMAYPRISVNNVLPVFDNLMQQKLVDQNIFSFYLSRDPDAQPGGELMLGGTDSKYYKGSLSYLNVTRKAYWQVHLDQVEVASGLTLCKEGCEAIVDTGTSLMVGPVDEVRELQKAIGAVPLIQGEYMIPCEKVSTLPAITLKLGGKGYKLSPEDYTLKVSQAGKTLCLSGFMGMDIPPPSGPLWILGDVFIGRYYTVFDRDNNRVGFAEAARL
# Chain of hamster CTSL (Q812A7 entry or part of it): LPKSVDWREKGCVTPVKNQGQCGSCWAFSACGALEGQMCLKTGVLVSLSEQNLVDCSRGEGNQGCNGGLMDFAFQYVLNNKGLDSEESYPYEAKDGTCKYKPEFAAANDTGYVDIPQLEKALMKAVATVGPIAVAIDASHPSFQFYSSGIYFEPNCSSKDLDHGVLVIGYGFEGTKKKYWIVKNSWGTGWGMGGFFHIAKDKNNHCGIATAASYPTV
# Chain of mouse cathepsin B (mCTSB) (P10605 80-339): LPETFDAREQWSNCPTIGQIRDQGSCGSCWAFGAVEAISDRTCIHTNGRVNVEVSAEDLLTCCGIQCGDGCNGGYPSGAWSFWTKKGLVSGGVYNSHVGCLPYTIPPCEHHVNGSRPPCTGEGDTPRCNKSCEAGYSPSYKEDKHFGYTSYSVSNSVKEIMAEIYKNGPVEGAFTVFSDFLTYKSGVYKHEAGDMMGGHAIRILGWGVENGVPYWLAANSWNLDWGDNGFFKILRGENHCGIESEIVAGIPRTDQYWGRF
compound,measurement,setting,value
"COc1cccc2[nH]c(C(=O)N[C@@H](Cc3cccc(F)c3)C(=O)N[C@@H](C[C@@H]3CCNC3=O)C(=O)COc3c(F)c(F)c(C(C)O)c(F)c3F)cc12 (stereo partly drawn) [compound 8, N-((2S)-3-(3-Fluorophenyl)-1-oxo-1-(((2S)-3-oxo-1-((S)-2-oxopyrrolidin-3-yl)-4-(2,3,5,6-tetrafluoro-4-(1-hydroxyethyl)phenoxy)butan-2-yl)amino)propan-2-yl)-4-methoxy-1H-indole-2-carboxamide]",IC50,SARS-CoV-2 M^pro; read-out: M^pro biochemical assay pIC50 (converted),5.62 nM
same,hCTSL biochemical assay pIC50,[1],7.34
same,hCTSB biochemical assay pIC50,[2],5.73
same,IC50,[3]; read-out: pIC50 (mouse CTSL) (converted),288 nM
same,pIC50 (hamster CTSL),hamster CTSL,7.92 ± 0.18
same,EC50,"[4]; Vesicular stomatitis virus, Vero C1008, read-out: Entry reporter assay pEC50 (converted)",2880 nM
same,EC50,SARS-CoV-2,158 nM
same,inhibition at 10 µM,Calpain-1,5%
same,inhibition at 10 µM,Caspase 2,20%
same,inhibition at 10 µM,Cathepsin D,9%
same,inhibition at 10 µM,Neutrophil Elastase 2,2%
same,inhibition at 10 µM,thrombin,-0.2 ± 0.6%
same,"mouse plasma protein binding, fraction bound (Fb)",[5],99.17%
same,CC50,in vitro [6],> 1260 nM
same,logD at 1 h,physchem [7],3.26
same,solubility kinetic at 24 h,physchem [8],12.3 µM
same,"fraction unbound at 3 h, 2 µM",in vitro [9]; fraction bound (Fb),0.0083
same,"fraction unbound at 3 h, 2 µM",in vitro [9]; fraction unbound (Fu),0.0083
same,"hepatocyte CLint at 2 h, 2 µM",in vitro [10],64.5 µL/min/1e6 cells
same,"remaining at 2 h, 1 µM","in vitro [11]; % remaining at 120 min (hamster hepatocytes, compound/ritonavir 1:1)",7.05%
same,"remaining at 2 h, 1 µM","in vitro [11]; % remaining at 120 min (hamster hepatocytes, compound/ritonavir 2:1)",2.78%
same,"hepatocyte CLint at 2 h, 4 µM",in vitro [11]; CLint (hamster hepatocytes + ritonavir 4:1),29.7 µL/min/1e6 cells
same,"hepatocyte CLint at 2 h, 2 µM",in vitro [11]; CLint (hamster hepatocytes),33.1 µL/min/1e6 cells
same,hepatocyte CLint at 1 µM,"in vitro [11]; CLint (hamster hepatocytes, compound/ritonavir 1:1)",22.6 µL/min/1e6 cells
same,hepatocyte CLint at 1 µM,"in vitro [11]; CLint (hamster hepatocytes, compound/ritonavir 2:1)",31.7 µL/min/1e6 cells
same,"half-life at 2 h, 4 µM",in vitro [11]; t1/2 (hamster hepatocytes + ritonavir 4:1),23.3 min
same,half-life at 1 µM,"in vitro [11]; t1/2 (hamster hepatocytes, compound/ritonavir 1:1)",30.7 min
same,half-life at 1 µM,"in vitro [11]; t1/2 (hamster hepatocytes, compound/ritonavir 2:1)",21.9 min
same,microsomal CLint at 1 µM,in vitro [12],1100 µL/min/mg
same,"remaining at 1 h, 1 µM",in vitro [12],0%
same,microsomal CLint at 1 µM,in vitro [13],1290 µL/min/mg
same,"remaining at 1 h, 1 µM",in vitro [13],0%
same,Trypsin inhibition at 10 μM,trypsin,7.5 ± 4.9%
same,half-life at 1 µM,"[14]; mouse, cryopreserved hepatocytes",26.9 min
same,"half-life at 2 h, 2 µM",[15],20.9 min
same,half-life at 1 µM,[16],1.28 min
same,half-life at 1 µM,[17],1.08 min
"N-((S)-3-(3-Fluorophenyl)-1-oxo-1-(((S)-2-oxo-5-(5-oxo-1,5-dihydro-4H-1,2,4-triazol-4-yl)-1-(2,3,5,6-tetrafluoro-4-(2-hydroxypropan-2-yl)phenoxy)pentan-3-yl)amino)propan-2-yl)-4-methoxy-1H-indole-2-carboxamide [compound 12]",M^pro biochemical assay pIC50,SARS-CoV-2 M^pro,6.75
same,hCTSL biochemical assay pIC50,[1],9.48
same,selectivity for hCTSL over M^pro,[1],more than 500 fold
same,hCTSB biochemical assay pIC50,[2],6.65
same,pIC50 (mouse CTSL),[3],7.66
same,pIC50 (mouse CTSB),[18],> 8.16
same,Entry reporter assay pEC50,[4],5.14
same,"pCC50 (CPE), cytotoxicity",Vero E6 cells,< 5.00
same,logD,[19],2.88
same,kinetic solubility,Kinetic solubility,5.84 µM
same,CLint (mouse hepatocytes + ritonavir 4:1),[14]; compound/ritonavir 4:1,37.1 μL/min/10^6 cells
same,t1/2 (mouse hepatocytes + ritonavir 4:1),[14]; compound/ritonavir 4:1,46.7 min
same,CLint (mouse hepatocytes),[14]; without ritonavir,76.8 μL/min/10^6 cells
same,t1/2 (mouse hepatocytes),[14]; without ritonavir,22.6 min
same,"mouse plasma protein binding, fraction bound (Fb)",[20],99.69%
same,"mouse plasma protein binding, fraction unbound (Fu)",[20],0.31%
